# Experimental data taken from patent publication US9878070B2, “Malleable implants including an oxysterol and methods of use” (Warsaw Orthopedic, Inc., priority 2015, dated 2018).
# Entries after “also recorded” stand apart in the source; their conditions may differ.
# Columns and labels:
# [1] = test system: rat two-level spine model; assay: Posterolateral spinal fusion in a rat two-level spine model (radiographs, manual palpation); assay type: in vivo; conditions: collagen/ceramic matrix wetted with sterile water, bilateral in posterolateral space, 4-week and 8-week timepoints
# Description: FIG. 6 illustrates uses of a formulation of malleable implants having 20 mg of Oxy133 on each side of the implant, in accordance with the malleable implants described herein. […] A dry composition of a matrix containing Oxy133, collagen and ceramic as described herein was prepared and wetted with sterile water to be implanted in rat spines as shown in FIG. 6. The wetted matrix was cut in half with a razor blade to yield two halves. The two implants were molded into cylindrical shapes prior to insertion and were positioned bilaterally in the posterolateral space of each test subject. Each implant contained 20 mg Oxy133. Radiographs were taken roughly 10 minutes after the procedure, 4 weeks after the procedure, and 8 weeks after the procedure. […] Fusion was tested at 8-week sacrifice by manual palpation. […] A dry composition of a matrix containing Oxy133, collagen and ceramic as described herein was prepared and wetted with sterile water to be implanted in rat spines as shown in FIG. 6. The wetted matrix was cut in half with a razor blade to yield two halves. The two implants were molded into cylindrical shapes prior to insertion and were positioned bilaterally in the posterolateral space of each test subject. Each implant contained 125 mg Oxy133. Radiographs were taken roughly 10 minutes after the procedure, 4 weeks after the procedure, and 8 weeks after the procedure. […]
# [2] = test system: multipotent mesenchymal cells such as M2-10B4 (M2) marrow stromal cells and C3H10T1/2 embryonic fibroblasts; conditions: cited from earlier work
SMILES,bridging bone across the transverse processes of L3-L5 / bone growth (radiographs) ([1]; 20 mg Oxy133 per implant),bridging bone across the transverse processes of L3-L5 / bone growth (radiographs) ([1]; 125 mg Oxy133 per implant),osteogenic differentiation [2]
"CCCCCC[C@](C)(O)[C@H]1CC[C@H]2[C@@H]3C[C@H](O)[C@H]4C[C@@H](O)CC[C@]4(C)[C@H]3CC[C@@]21C [Oxy133, (3S,5S,6S,8R,9S,10R,13S,14S,17S) 17-((S)-2-hydroxyoctan-2-yl)-10,13-dimethylhexadecahydro-1H-cyclopenta[a]phenanthrene-3,6-diol]",promoted bridging bone; also recorded: Bone growth in rat test subjects can be seen,promoted bridging bone; also recorded: Bone growth in rat test subjects can be seen,–
CC(C)CC[C@H](O)[C@@H](C)[C@H]1CC[C@H]2[C@@H]3CC=C4C[C@@H](O)CC[C@]4(C)[C@H]3CC[C@]12C [22(S)-hydroxycholesterol],–,–,induce osteogenic differentiation
CC(C)CCC[C@](C)(O)[C@H]1CC[C@H]2[C@@H]3CC=C4C[C@@H](O)CC[C@]4(C)[C@H]3CC[C@@]21C [20(S)-hydroxycholesterol],–,–,induce osteogenic differentiation
CC(C)CC[C@@H](O)[C@@H](C)[C@H]1CC[C@H]2[C@@H]3CC=C4C[C@@H](O)CC[C@]4(C)[C@H]3CC[C@]12C [22(R)-hydroxycholesterol],–,–,induce osteogenic differentiation
